Experimental data published in patent EP0603755A2, “Cephalosporin salts and processes for their preparation” (HOECHST AKTIENGESELLSCHAFT, priority 1992, dated 1994).
Values belong to the compound of their own block, whether it stands above or below them.

Legend:
[1] = Pharmacokinetics after intramuscular administration; antibiotic content in blood/serum by agar diffusion test; type: in vivo, Hund
From the text: Zur Bestimmung der pharmakokinetischen Eigenschaften der erfindungsgemäßen Cephalosporin-Articainsalze wurden unter […] Untersuchungen an Mäusen und Hunden durchgeführt. Die […] und die korrespondierenden Alkalisalze der Cephalosporine wurden in therapeutisch üblichen Dosierungen intramuskulär verabreicht. Zu festgelegten Zeitpunkten nach der Injektion des Antibiotikums wurden den Versuchstieren Blutproben entnommen und der Antibiotika-Gehalt im Blut bzw. Serum mit Hilfe des Agardiffusionstestes bestimmt. Die pharmakokinetischen […] Computerprogramms ermittelt.

[2] = Qualitative solubility of the salts (observed on crystallisation from water); settings: in water, partly relative to the salt of the other Articain enantiomer

SMILES: CCCCOC(=O)c1scc(C)c1NC(=O)C(C)NCCC.CO/N=C(\C(=O)N[C@@H]1C(=O)N2C(C(=O)O)=C(COC(C)=O)CS[C@H]12)c1csc(N)n1 [Beispiel 10, Cefotaximsalz von (+ )n-Butyl 4-methyl-3(2-n-propylaminopropionamido) thiophen-2-carboxylat]
Halbwertszeit ([1]; Hund, intramuscular application, blood/serum level by agar diffusion test): 6,6 Stunden

SMILES: CCCNC(C)C(=O)Nc1c(C)csc1C(=O)OC.CON=C(C(=O)NC1C(=O)N2C(C(=O)O)=CCSC12)c1csc(N)n1 (single isomer, unassigned; (-)) [(-)-Articain-Ceftizoximsalz]
Löslichkeit [2]: leichter löslich in Wasser

Continued, values first:

half-life ([1]; dog, im, Hund, intramuscular application, blood/serum level by agar diffusion test, read-out: Halbwertszeit (converted)): 48 min
SMILES: CO/N=C(\C(=O)N[C@@H]1C(=O)N2C(C(=O)O)=C(COC(C)=O)CS[C@H]12)c1csc(N)n1 [Cefotaxim, reference compound]

Löslichkeit [2]: schwerlösliche
SMILES: CCCNC(C)C(=O)Nc1c(C)csc1C(=O)OC.CON=C(C(=O)NC1C(=O)N2C(C(=O)O)=C(COC(N)=O)CSC12)c1ccco1 (single isomer, unassigned; (+)) [(+) Articain-Cefuroximsalz]

Halbwertszeit ([1]; dog, in vivo, im): 4,1 Stunden
SMILES: CCCNC(C)C(=O)Nc1c(C)csc1C(=O)OC.CON=C(C(=O)NC1C(=O)N2C(C(=O)O)=C(COC(C)=O)CSC12)c1csc(N)n1 (single isomer, unassigned; (+)) [(+)-Articain-Cefotaxim, ( +)-Articain-Cefotaximsalz]
